This is an account of results in ChEMBL document CHEMBL4002628, “Benzenesulphonamide inhibitors of the cytolytic protein perforin” (Bioorg Med Chem Lett, 2017).

Calls of active or inactive are those of the source. The rule behind the calls is not given here. A value given as a limit tells only on which side of the number the result lay.

The target in experiment [1] is T1, Perforin-1 (Homo sapiens) (UniProt P14222).
T1 sequence (whole entry): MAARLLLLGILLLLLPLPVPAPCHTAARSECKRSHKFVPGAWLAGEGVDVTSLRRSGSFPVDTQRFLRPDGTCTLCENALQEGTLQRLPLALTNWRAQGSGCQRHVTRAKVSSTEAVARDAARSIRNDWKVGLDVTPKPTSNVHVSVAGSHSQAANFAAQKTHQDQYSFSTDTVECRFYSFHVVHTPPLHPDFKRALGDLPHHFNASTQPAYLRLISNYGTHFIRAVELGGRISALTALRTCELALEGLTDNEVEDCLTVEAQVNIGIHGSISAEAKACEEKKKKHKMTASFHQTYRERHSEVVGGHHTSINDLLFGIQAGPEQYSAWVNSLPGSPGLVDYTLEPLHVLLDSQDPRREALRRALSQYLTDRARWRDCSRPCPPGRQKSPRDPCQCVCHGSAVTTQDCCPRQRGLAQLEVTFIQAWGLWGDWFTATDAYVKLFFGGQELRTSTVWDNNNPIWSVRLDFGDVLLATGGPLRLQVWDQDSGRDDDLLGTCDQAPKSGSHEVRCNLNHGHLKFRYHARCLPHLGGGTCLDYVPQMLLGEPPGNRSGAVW
Description: Inhibition of recombinant perforin (unknown origin) assessed as decrease in lysis of 51Cr-labelled human Jurkat cells by measuring 51Cr release at 20 uM preincubated for 30 mins followed by cell line addition measured after 4 hrs in presence of 10% mouse serum by gamma counting method relative to control.

Experiment [2] is described as follows: Inhibition of N-terminal His-tagged recombinant human p85alpha expressed in baculovirus infected insect Sf21 cells/recombinant wild type mouse p110alpha using phosphatidylinositol as substrate in presence of [33P]-ATP.

Turning to `O=C1NCc2ccc(-c3ccc(-c4cncc(NS(=O)(=O)c5ccc(F)cc5F)c4)s3)cc21`, the inhibition result in experiment [1] was “Active”.
Turning to `CN1Cc2cc(-c3ccc(-c4cncc(NS(=O)(=O)c5ccc(F)cc5F)c4)s3)ccc2C1=O`, the inhibition entry in experiment [1] is “Active”. Further, in experiment [2], the IC50 (commonly the concentration that inhibits the measured activity by half) is over 6.25 µM.
For the compound `O=C1Cc2cc(-c3ccc(-c4cncc(NS(=O)(=O)c5ccc(F)cc5F)c4)s3)ccc2N1`, the inhibition result in experiment [1] is “Active”.
On the same count and under the same terms, for `O=C1NCc2cc(-c3ccc(-c4cncc(NS(=O)(=O)c5ccc(F)cc5F)c4)s3)ccc21` the value was “Active”.
